We go through 12 molecules from patent US20210283261A1, “Compositions and Methods for Treating ALK-Mediated Cancer” (ICAHN SCHOOL OF MEDICINE AT MOUNT SINAI, priority 2017, published 2021).

A value given as a limit tells only on which side of the number the result lay.

The target of this assay is T1, ALK fusion protein (Homo sapiens, UniProt Q9UM73).
T1 construct: endogenous in cells; host or cells: NCI-H3122; the other entry of the earlier key: EML4 (Q9HC35, Echinoderm microtubule-associated protein-like 4)
T1 sequence (Q9UM73 with tags, fused parts or gaps): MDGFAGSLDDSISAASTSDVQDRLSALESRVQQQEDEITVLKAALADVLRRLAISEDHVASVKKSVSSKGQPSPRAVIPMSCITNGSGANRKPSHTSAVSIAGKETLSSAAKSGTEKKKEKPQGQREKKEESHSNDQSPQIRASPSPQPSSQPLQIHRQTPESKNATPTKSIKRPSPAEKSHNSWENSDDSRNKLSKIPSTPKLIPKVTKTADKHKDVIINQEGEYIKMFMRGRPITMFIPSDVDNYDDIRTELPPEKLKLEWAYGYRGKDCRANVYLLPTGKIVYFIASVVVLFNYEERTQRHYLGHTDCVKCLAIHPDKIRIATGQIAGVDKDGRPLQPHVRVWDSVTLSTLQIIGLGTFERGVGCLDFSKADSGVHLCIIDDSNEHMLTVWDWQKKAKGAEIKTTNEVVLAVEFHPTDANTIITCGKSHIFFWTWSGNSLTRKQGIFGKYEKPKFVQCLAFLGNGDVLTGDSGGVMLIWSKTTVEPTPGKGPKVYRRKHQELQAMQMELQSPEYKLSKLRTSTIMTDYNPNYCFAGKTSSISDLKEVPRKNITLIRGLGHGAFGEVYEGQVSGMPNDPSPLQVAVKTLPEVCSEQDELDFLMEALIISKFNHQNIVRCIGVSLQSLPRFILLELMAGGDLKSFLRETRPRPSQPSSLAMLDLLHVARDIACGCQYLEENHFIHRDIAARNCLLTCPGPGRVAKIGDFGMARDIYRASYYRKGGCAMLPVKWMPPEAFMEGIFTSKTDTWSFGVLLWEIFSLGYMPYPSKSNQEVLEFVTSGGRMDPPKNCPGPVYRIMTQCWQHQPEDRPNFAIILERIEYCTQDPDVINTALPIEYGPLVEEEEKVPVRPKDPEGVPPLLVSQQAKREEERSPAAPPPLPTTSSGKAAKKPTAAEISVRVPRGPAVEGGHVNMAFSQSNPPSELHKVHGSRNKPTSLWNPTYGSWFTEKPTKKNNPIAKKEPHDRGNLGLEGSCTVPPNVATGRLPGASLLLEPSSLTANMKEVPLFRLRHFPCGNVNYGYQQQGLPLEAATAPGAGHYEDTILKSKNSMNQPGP
Put plainly: Western blot of ALK fusion protein levels in NCI-H3122 cells. It is filed as cell-based. The following applies: NCI-H3122, NCI-H3122 cells, 500 nM, Western blot; read-out: ALK fusion protein degradation, NCI-H3122 (500 nM). As to the method:
SU-DHL-1, NCI-H3122 and NCI-H2228 cells were cultured in RPMI-1640 medium supplemented with 10% fetal bovine serum, 50 μg/mL penicillin and streptomycin. Cells were cultured in a 37° C. incubator with 5% CO2.
Cells were washed with cold PBS once and lysed in 1× Laemmli loading buffer directly. Lysates were heated at 99° C. for […], and resolved on 4-15% precast SDS-PAGE (BIO-RAD) and transferred onto PVDF membrane. Membrane was blocked in 5% milk in Tris-buffered saline and Tween 20 (TBST) for 1 h at room temperature, followed by incubation with a primary antibody overnight at 4° C., and a horseradish peroxidase (HRP)-conjugated secondary antibody for 1 h at room temperature. The membrane was imaged by a ChemiDoc MP imaging system (BIO-RAD). Antibodies against GAPDH (abeam), Phospho-ALK (Tyr1507), ALK (Cell Signaling Technology), Tubulin (Santa Cruz) were purchased commercially. […]
In general terms: In western blotting, separated proteins are transferred to a membrane and probed.

Consider `Cc1cc(Nc2ncc(Cl)c(Nc3ccccc3S(=O)(=O)C(C)C)n2)c(OC(C)C)cc1C1CCN(C(=O)CCCCCCCCCC(=O)N[C@H](C(=O)N2C[C@H](O)C[C@H]2C(=O)NCc2ccc(-c3scnc3C)cc2)C(C)(C)C)CC1` [CZ47-29, (2S,4R)-1-((S)-2-(ll-(4-(4-((5-Chloro-4-((2-(isopropylsulfonyl)phenyl)amino)pyrimidin-2-yl)amino)-5-isopropoxy-2-methylphenyl)piperidin-1-yl)-11-oxoundecanamido)-3,3-dimethylbutanoyl)-4-hydroxy-N-(4-(4-methylthiazol-5-yl)benzyl)pyrrolidine-2-carboxamide], for which the Dmax at 0.5 µM was below 20%.

In the case of `Cc1cc(Nc2ncc(Cl)c(Nc3ccccc3S(=O)(=O)C(C)C)n2)c(OC(C)C)cc1C1CCN(C(=O)CCCCCCCNc2cccc3c2C(=O)N(C2CCC(=O)NC2=O)C3=O)CC1` (stereo not drawn) [CZ47-07, 4-((8-(4-(4-((5-Chloro-4-((2-(isopropylsulfonyl)phenyl)amino)pyrimidin-2-yl)amino)-5-isopropoxy-2-methylphenyl)piperidin-1-yl)-8-oxooctyl)amino)-2-(2,6-dioxopiperidin-3-yl)isoindoline-1,3-dione], the Dmax at 0.5 µM was in the range of 20 to 80%. Take `Cc1cc(Nc2ncc(Cl)c(Nc3ccccc3S(=O)(=O)C(C)C)n2)c(OC(C)C)cc1C1CCN(C(=O)CNc2cccc3c2C(=O)N(C2CCC(=O)NC2=O)C3=O)CC1` (stereo not drawn) [CZ47-01, 4-((2-(4-(4-((5-Chloro-4-((2-(isopropylsulfonyl)phenyl)amino)pyrimidin-2-yl)amino)-5-isopropoxy-2-methylphenyl)piperidin-1-yl)-2-oxoethyl)amino)-2-(2,6-dioxopiperidin-3-yl)isoindoline-1,3-dione]: the Dmax at 0.5 µM was below 20%. Take `Cc1cc(Nc2ncc(Cl)c(Nc3ccccc3S(=O)(=O)C(C)C)n2)c(OC(C)C)cc1C1CCN(C(=O)CCOCCC(=O)N[C@H](C(=O)N2C[C@H](O)C[C@H]2C(=O)NCc2ccc(-c3scnc3C)cc2)C(C)(C)C)CC1` [CZ47-14, (2S,4R)-1-((S)-2-(3-(3-(4-(4-((5-Chloro-4-((2-(isopropylsulfonyl)phenyl)amino)pyrimidin-2-yl)amino)-5-isopropoxy-2-methylphenyl)piperidin-1-yl)-3-oxopropoxy)propanamido)-3,3-dimethylbutanoyl)-4-hydroxy-N-(4-(4-methylthiazol-5-yl)benzyl)pyrrolidine-2-carboxamide]: the Dmax at 0.5 µM is 20 to 80%.

On to `Cc1cc(Nc2ncc(Cl)c(Nc3ccccc3S(=O)(=O)C(C)C)n2)c(OC(C)C)cc1C1CCN(C(=O)CCCCCC(=O)N[C@H](C(=O)N2C[C@H](O)C[C@H]2C(=O)NCc2ccc(-c3scnc3C)cc2)C(C)(C)C)CC1` [CZ47-25, (2S,4R)-1-((S)-2-(7-(4-(4-((5-Chloro-4-((2-(isopropylsulfonyl)phenyl)amino)pyrimidin-2-yl)amino)-5-isopropoxy-2-methylphenyl)piperidin-1-yl)-7-oxoheptanamido)-3,3-dimethylbutanoyl)-4-hydroxy-N-(4-(4-methylthiazol-5-yl)benzyl)pyrrolidine-2-carboxamide], for which the Dmax at 0.5 µM is above 80%. `Cc1cc(Nc2ncc(Cl)c(Nc3ccccc3S(=O)(=O)C(C)C)n2)c(OC(C)C)cc1C1CCN(C(=O)CCOCCOCCNc2cccc3c2C(=O)N(C2CCC(=O)NC2=O)C3=O)CC1` (stereo not drawn) [CZ47-09, 4-((2-(2-(3-(4-(4-((5-Chloro-4-((2-(isopropylsulfonyl)phenyl)amino)pyrimidin-2-yl)amino)-5-isopropoxy-2-methylphenyl)piperidin-1-yl)-3-oxopropoxy)ethoxy)ethyl)amino)-2-(2,6-dioxopiperidin-3-yl)isoindoline-1,3-dione]: the Dmax at 0.5 µM is above 80%. As for `Cc1cc(Nc2ncc(Cl)c(Nc3ccccc3S(=O)(=O)C(C)C)n2)c(OC(C)C)cc1C1CCN(C(=O)CCCCCNc2cccc3c2C(=O)N(C2CCC(=O)NC2=O)C3=O)CC1` (stereo not drawn) [CZ47-05, 4-((6-(4-(4-((5-Chloro-4-((2-(isopropylsulfonyl)phenyl)amino)pyrimidin-2-yl)amino)-5-isopropoxy-2-methylphenyl)piperidin-1-yl)-6-oxohexyl)amino)-2-(2,6-dioxopiperidin-3-yl)isoindoline-1,3-dione], the figure is below 20%; as for `Cc1cc(Nc2ncc(Cl)c(Nc3ccccc3S(=O)(=O)C(C)C)n2)c(OC(C)C)cc1C1CCN(C(=O)CCOCCOCCOCCOCCC(=O)N[C@H](C(=O)N2C[C@H](O)C[C@H]2C(=O)NCc2ccc(-c3scnc3C)cc2)C(C)(C)C)CC1` [CZ47-19, (2S,4R)-1-((S)-2-(tert-Butyl)-19-(4-(4-((5-chloro-4-((2-(isopropylsulfonyl)phenyl)amino)pyrimidin-2-yl)amino)-5-isopropoxy-2-methylphenyl)piperidin-1-yl)-4,19-dioxo-7,10,13,16-tetraoxa-3-azanonadecanoyl)-4-hydroxy-N-(4-(4-methylthiazol-5-yl)benzyl)pyrrolidine-2-carboxamide], below 20%. As for `Cc1cc(Nc2ncc(Cl)c(Nc3ccccc3S(=O)(=O)C(C)C)n2)c(OC(C)C)cc1C1CCN(C(=O)CCOCCOCCOCCC(=O)N[C@H](C(=O)N2C[C@H](O)C[C@H]2C(=O)NCc2ccc(-c3scnc3C)cc2)C(C)(C)C)CC1` [CZ47-18, (2S,4R)-1-((S)-2-(tert-Butyl)-16-(4-(4-((5-chloro-4-((2-(isopropylsulfonyl)phenyl)amino)pyrimidin-2-yl)amino)-5-isopropoxy-2-methylphenyl)piperidin-1-yl)-4,16-dioxo-7,10,13-trioxa-3-azahexadecanoyl)-4-hydroxy-N-(4-(4-methylthiazol-5-yl)benzyl)pyrrolidine-2-carboxamide], the figure is below 20%; as for `Cc1cc(Nc2ncc(Cl)c(Nc3ccccc3S(=O)(=O)C(C)C)n2)c(OC(C)C)cc1C1CCN(C(=O)CCCCCCC(=O)N[C@H](C(=O)N2C[C@H](O)C[C@H]2C(=O)NCc2ccc(-c3scnc3C)cc2)C(C)(C)C)CC1` [CZ47-26, (2S,4R)-1-((S)-2-(8-(4-(4-((5-Chloro-4-((2-(isopropylsulfonyl)phenyl)amino)pyrimidin-2-yl)amino)-5-isopropoxy-2-methylphenyl)piperidin-1-yl)-8-oxooctanamido)-3,3-dimethylbutanoyl)-4-hydroxy-N-(4-(4-methylthiazol-5-yl)benzyl)pyrrolidine-2-carboxamide], above 80%. Regarding `Cc1cc(Nc2ncc(Cl)c(Nc3ccccc3S(=O)(=O)C(C)C)n2)c(OC(C)C)cc1C1CCN(C(=O)CCCCCCNc2cccc3c2C(=O)N(C2CCC(=O)NC2=O)C3=O)CC1` (stereo not drawn) [CZ47-06, 4-((7-(4-(4-((5-Chloro-4-((2-(isopropylsulfonyl)phenyl)amino)pyrimidin-2-yl)amino)-5-isopropoxy-2-methylphenyl)piperidin-1-yl)-7-oxoheptyl)amino)-2-(2,6-dioxopiperidin-3-yl)isoindoline-1,3-dione], the Dmax at 0.5 µM was below 20%. As for `Cc1cc(Nc2ncc(Cl)c(Nc3ccccc3S(=O)(=O)C(C)C)n2)c(OC(C)C)cc1C1CCN(C(=O)CCOCCOCCOCCNc2cccc3c2C(=O)N(C2CCC(=O)NC2=O)C3=O)CC1` (stereo not drawn) [CZ47-10, 4-((2-(2-(2-(3-(4-(4-((5-Chloro-4-((2-(isopropylsulfonyl)phenyl)amino)pyrimidin-2-yl)amino)-5-isopropoxy-2-methylphenyl)piperidin-1-yl)-3-oxopropoxy)ethoxy)ethoxy)ethyl)amino)-2-(2,6-dioxopiperidin-3-yl)isoindoline-1,3-dione], the figure is below 20%.
